As a reminder, the EC50 is the concentration at which the effect is half-maximal. High values mean weaker potency, low ones greater potency.

The values below come from paper PMC8571031, “Stimulation of Ca^2+‐ATPase Transport Activity by a Small‐Molecule Drug” (Chemmedchem, 2021).

The experiment deals with T1, sarco(endo)plasmic reticulum Ca2+-ATPase (SERCA1a isoform) (Oryctolagus cuniculus, UniProt P04191).
T1 construct: gene ATP2A1; purified SERCA1a from rabbit skeletal muscle SR in reconstituted proteoliposomes; native SR vesicles for the EC50
T1 sequence (P04191 1-993): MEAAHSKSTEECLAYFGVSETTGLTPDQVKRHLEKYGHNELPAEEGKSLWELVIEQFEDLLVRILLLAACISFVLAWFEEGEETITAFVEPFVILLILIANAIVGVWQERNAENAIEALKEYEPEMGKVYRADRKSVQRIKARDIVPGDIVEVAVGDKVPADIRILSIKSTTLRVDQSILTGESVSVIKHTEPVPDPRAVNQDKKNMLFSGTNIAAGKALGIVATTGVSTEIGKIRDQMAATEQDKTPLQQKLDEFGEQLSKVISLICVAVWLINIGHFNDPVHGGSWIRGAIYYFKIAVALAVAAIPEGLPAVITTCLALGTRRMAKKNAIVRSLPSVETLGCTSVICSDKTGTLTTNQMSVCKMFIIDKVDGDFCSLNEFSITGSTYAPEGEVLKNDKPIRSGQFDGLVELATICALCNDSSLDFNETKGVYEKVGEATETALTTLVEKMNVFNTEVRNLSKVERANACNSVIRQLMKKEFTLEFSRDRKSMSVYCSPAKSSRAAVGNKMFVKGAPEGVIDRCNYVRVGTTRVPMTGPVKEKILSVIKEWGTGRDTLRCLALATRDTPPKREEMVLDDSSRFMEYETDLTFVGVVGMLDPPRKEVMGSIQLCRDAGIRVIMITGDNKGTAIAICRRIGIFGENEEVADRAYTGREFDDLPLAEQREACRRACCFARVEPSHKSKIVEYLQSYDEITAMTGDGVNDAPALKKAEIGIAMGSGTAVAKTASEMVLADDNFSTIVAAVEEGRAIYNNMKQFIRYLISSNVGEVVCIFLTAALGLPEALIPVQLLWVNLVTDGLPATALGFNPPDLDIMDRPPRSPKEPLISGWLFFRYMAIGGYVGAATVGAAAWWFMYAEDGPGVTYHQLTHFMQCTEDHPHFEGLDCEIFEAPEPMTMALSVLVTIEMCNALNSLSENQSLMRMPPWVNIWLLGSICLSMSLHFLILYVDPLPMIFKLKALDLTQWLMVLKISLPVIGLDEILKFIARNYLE
Kind of experiment: SSM electrical measurement of ATP-induced charge translocation (activation); EC50 on native SR vesicles, direct action confirmed with purified SERCA1a proteoliposomes. The format is biochemical.

The compound `Cc1ccc2cccc(NC(=O)c3ccc(OC(C)C)cc3)c2n1` [CDN1163] yielded an EC50 of 6 ± 0.3 µM.
